This note sets out measurements from ChEMBL document CHEMBL4627394, “A Grand Challenge. 3. Unbiased Phenotypic Function of Metabolites from Australia Plants Gloriosa superba and Alangium villosum against Parkinson's Disease” (J Nat Prod, 2020).

Series [1] in a line: Cytotoxicity against Parkinson's disease patient derived human ONS cells assessed as effect on nucleus morphology parameters at 10 uM after 24 hrs by DAPI staining based fluorescence assay.
Series [2] in a line: Cytotoxicity against Parkinson's disease patient derived human ONS cells assessed as effect on cell morphology parameters at 10 uM after 24 hrs by DAPI staining based fluorescence assay.
Series [3] is filed under the species Homo sapiens. Put plainly: Effect on early endosome parameters in Parkinson's disease patient derived human ONS cells at 10 uM after 24 hrs by EEA1 staining based fluorescence assay. The class given is functional.

Calls of active or inactive are those of the source. The rule behind the calls is not given here.

With `COC1=C[C@@H]2C3=C([C@@H]2C1=O)[C@@H](NC=O)CCc1cc(OC)c(O)c(OC)c13`, the Activity entry in series [1] and in series [2] was “Non-Toxic” each time.

On to `COC1=C[C@H]2C3=C([C@H]2C1=O)[C@@H](NC(C)=O)CCc1cc(OC)c(O[C@@H]2O[C@H](CO)[C@@H](O)[C@H](O)[C@H]2O)c(OC)c13`, for which the Activity result in series [1] and in series [2] was “Non-Toxic” in each case.

As for `CC[C@H]1CN2CCc3cc(O)c(OC)cc3[C@@H]2C[C@@H]1C[C@@H]1NCCc2c1[nH]c1ccc(O)cc21.O=C(O)C(F)(F)F.O=C(O)C(F)(F)F`, the Activity entry in series [1] and in series [2] was “Non-Toxic” each time. For the same molecule, in series [3], the result was Active.

As for `CC[C@H]1CN2CCc3cc(OC)c(OC)cc3[C@@H]2C[C@@H]1C[C@H]1NCCc2c1[nH]c1ccc(O)cc21.O=C(O)C(F)(F)F.O=C(O)C(F)(F)F`, the Activity entry in series [1] and in series [2] was “Non-Toxic” throughout. The outcome in series [3] was Active.

In the case of `COC1=C[C@@H]2C3=C([C@@H]2C1=O)[C@@H](NC(C)=O)CCc1cc(OC)c(O[C@@H]2O[C@H](CO)[C@@H](O)[C@H](O)[C@H]2O)c(OC)c13`, the Activity result in series [1] and in series [2] was “Non-Toxic” in each case.

As to `COC1=C[C@@H]2C3=C([C@@H]2C1=O)[C@@H](NC=O)CCc1cc(OC)c(O[C@@H]2O[C@H](CO)[C@@H](O)[C@H](O)[C@H]2O)c(OC)c13`, the Activity entry in series [1] and in series [2] was “Non-Toxic” throughout.

On to `CC[C@H]1C[N@@+]2(O)CCc3cc(O)c(OC)cc3[C@@H]2C[C@@H]1C[C@H]1NCCc2c1[nH]c1ccc(O)cc21.O=C(O)C(F)(F)F.O=C([O-])C(F)(F)F`, for which the Activity entry in series [1] and in series [2] was “Non-Toxic” each time. The outcome in series [3] was Active.

`COC1=C[C@@H]2C3=C([C@@H]2C1=O)[C@@H](NC(C)=O)CCc1cc(OC)c(OC)c(OC)c13`: the Activity entry in series [1] and in series [2] was “Non-Toxic” in each case.

As for `CC[C@H]1C[N@+]2(O)CCc3cc(O)c(OC)cc3[C@@H]2C[C@@H]1C[C@@H]1NCCc2c1[nH]c1ccc(O)cc21.O=C(O)C(F)(F)F.O=C([O-])C(F)(F)F`, the Activity entry in series [1] and in series [2] was “Non-Toxic” each time. Besides, the outcome in series [3] was Active.

Consider `COc1c2c(cc3c1-c1ccc(OC)c(=O)cc1[C@@H](NC(C)=O)CC3)OCO2`, for which the Activity entry in series [1] and in series [2] was “Non-Toxic” each time.

As to `COc1cc2c(c(OC)c1O)-c1ccc(OC)c(=O)cc1[C@@H](NC(C)=O)CC2` [2-DESMETHYLCOLCHICIN], the Activity result in series [1] and in series [2] was “Non-Toxic” throughout.

In the case of `COc1cc2c(c(OC)c1O)-c1ccc(OC)c(=O)cc1[C@@H](NC=O)CC2`, the Activity entry in series [1] and in series [2] was “Non-Toxic” in each case.

For the molecule `COC1=C[C@@H]2C3=C([C@@H]2C1=O)[C@@H](NC(C)=O)CCc1cc(O[C@@H]2O[C@H](CO)[C@@H](O)[C@H](O)[C@H]2O)c(O)c(OC)c13`, the Activity entry in series [1] and in series [2] was “Non-Toxic” throughout.

`CC[C@H]1C[N@@+]2(O)CCc3cc(OC)c(OC)cc3[C@@H]2C[C@@H]1C[C@H]1NCCc2c1[nH]c1ccc(O)cc21.O=C(O)C(F)(F)F.O=C([O-])C(F)(F)F`: the Activity result in series [1] and in series [2] was “Non-Toxic” in each case. In addition, in series [3], the result was Active.

Consider `COc1cc2c(c(OC)c1OC)-c1ccc(OC)c(=O)cc1[C@@H](NC=O)CC2`, for which the Activity result in series [1] and in series [2] was “Non-Toxic” each time.

On to `CC[C@H]1CN2CCc3cc(O)c(OC)cc3[C@@H]2C[C@@H]1C[C@H]1NCCc2c1[nH]c1ccc(O)cc21.O=C(O)C(F)(F)F.O=C(O)C(F)(F)F`, for which the Activity result in series [1] and in series [2] was “Non-Toxic” throughout. In addition, in series [3], the outcome was Active.

Consider `CC[C@H]1C[N@+]2(O)CCc3cc(OC)c(OC)cc3[C@@H]2C[C@@H]1C[C@@H]1NCCc2c1[nH]c1ccc(O)cc21.O=C(O)C(F)(F)F.O=C([O-])C(F)(F)F`, for which the Activity entry in series [1] and in series [2] was “Non-Toxic” throughout. For the same molecule, the result in series [3] was Active.

As to `CC[C@H]1CN2CCc3cc(O)c(OC)cc3[C@@H]2C[C@@H]1C[C@H]1NCCc2c1[nH]c1ccccc21.O=C(O)C(F)(F)F.O=C(O)C(F)(F)F`, the Activity entry in series [1] and in series [2] was “Non-Toxic” each time. Moreover, in series [3], the outcome was Active.

Consider `COc1cc2c(c(OC)c1OC)-c1ccc(OC)c(=O)cc1[C@@H](NC(C)=O)CC2` [COLCHICINE], for which the Activity entry in series [1] and in series [2] was “Non-Toxic” in each case.

Regarding `COC1=C[C@@H]2C3=C([C@@H]2C1=O)[C@@H](NC=O)CCc1cc(OC)c(OC)c(OC)c13`, the Activity entry in series [1] and in series [2] was “Non-Toxic” throughout.

For the molecule `COC1=C[C@@H]2C3=C([C@@H]2C1=O)[C@@H](NC(C)=O)CCc1cc(OC)c(O)c(OC)c13`, the Activity result in series [1] and in series [2] was “Non-Toxic” in each case.

Turning to `CC[C@H]1CN2CCc3cc(OC)c(OC)cc3[C@@H]2C[C@@H]1C[C@@H]1NCCc2c1[nH]c1ccc(O)cc21.O=C(O)C(F)(F)F.O=C(O)C(F)(F)F`, the Activity result in series [1] and in series [2] was “Non-Toxic” in each case. Further, in series [3], the result was Active.
